Source: patent publication US20220112187A1, “PYRAZOLOPYRIDINE AMINE COMPOUNDS FOR THE TREATMENT OF AUTOIMMUNE DISEASE” (Hoffmann-La Roche Inc., priority 2018, published 2022)

Target: T1, human TLR8 (Homo sapiens, UniProt Q9NR97)
T1 sequence (Q9NR97 27-1041): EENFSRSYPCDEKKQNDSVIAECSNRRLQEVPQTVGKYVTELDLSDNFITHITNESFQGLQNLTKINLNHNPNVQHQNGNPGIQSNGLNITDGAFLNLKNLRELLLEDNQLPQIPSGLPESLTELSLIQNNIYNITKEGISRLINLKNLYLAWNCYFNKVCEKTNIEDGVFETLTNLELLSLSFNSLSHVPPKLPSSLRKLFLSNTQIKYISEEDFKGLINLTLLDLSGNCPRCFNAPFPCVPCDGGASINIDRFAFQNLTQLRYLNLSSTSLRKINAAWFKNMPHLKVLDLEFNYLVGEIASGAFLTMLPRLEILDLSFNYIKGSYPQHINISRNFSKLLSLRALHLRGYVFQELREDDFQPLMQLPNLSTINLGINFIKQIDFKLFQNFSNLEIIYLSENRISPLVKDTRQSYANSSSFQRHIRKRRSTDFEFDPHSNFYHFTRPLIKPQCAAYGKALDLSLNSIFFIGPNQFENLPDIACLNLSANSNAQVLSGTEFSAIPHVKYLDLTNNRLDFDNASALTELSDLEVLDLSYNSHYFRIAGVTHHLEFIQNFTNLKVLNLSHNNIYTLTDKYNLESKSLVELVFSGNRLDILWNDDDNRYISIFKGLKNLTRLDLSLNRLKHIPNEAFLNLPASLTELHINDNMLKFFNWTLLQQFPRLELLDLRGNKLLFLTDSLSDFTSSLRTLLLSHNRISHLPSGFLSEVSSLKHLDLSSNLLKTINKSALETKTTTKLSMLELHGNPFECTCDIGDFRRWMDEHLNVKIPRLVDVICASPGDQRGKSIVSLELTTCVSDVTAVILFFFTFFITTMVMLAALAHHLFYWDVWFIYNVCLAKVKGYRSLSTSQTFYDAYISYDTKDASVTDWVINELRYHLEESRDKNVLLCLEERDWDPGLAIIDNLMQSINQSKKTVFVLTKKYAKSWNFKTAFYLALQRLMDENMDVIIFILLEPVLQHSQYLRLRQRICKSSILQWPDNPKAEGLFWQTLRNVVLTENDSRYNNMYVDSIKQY
Test: HEK293-Blue-hTLR-8 cells assay (SEAP reporter, R848 stimulation)
Format: cell-based
Details: HEK293-Blue-hTLR8 cells, R848 ligand, 20 hrs incubation
Source text: A stable HEK293-Blue-hTLR-8 cell line was purchased from InvivoGen (Cat. #: hkb-htlr8, San Diego, Calif., USA). These cells were originally designed for studying the stimulation of human TLR8 by monitoring the activation of NF-κB. A SEAP (secreted embryonic alkaline phosphatase) reporter gene was placed under the control of the IFN-β minimal promoter fused to five NF-κB and AP-1-binding sites. The SEAP was induced by activating NF-κB and AP-1 via stimulating HEK-Blue hTLR8 cells with TLR8 ligands. Therefore the reporter expression was declined by TLR8 antagonist under the stimulation of a ligand, such as R848, for incubation of 20 hrs. The cell culture supernatant SEAP reporter activity was determined using QUANTI-Blue™ kit (Cat. #: rep-qb1, Invivogen, San Diego, Ca, USA) at a wavelength of 640 nm, a detection medium that turns purple or blue in the presence of alkaline phosphatase.
HEK293-Blue-hTLR8 cells were incubated at a density of 250,000˜450,000 cells/mL in a volume of 170 μL in a 96-well plate in Dulbecco's Modified Eagle's medium (DMEM) containing 4.5 g/L glucose, 50 U/mL penicillin, […], […], 2 mM L-glutamine, 10% (v/v) heat-inactivated fetal bovine serum with addition of 20 μL test compound in a serial dilution in the presence of final DMSO at 1% and 10 μL of 60 uM R848 in above DMEM, perform incubation under 37° C. in a CO2 incubator for 20 hrs. Then 20 μL of the supernatant from each well was incubated with 180 μL Quanti-blue substrate solution at 37° C. for 2 hrs and the absorbance was read at 620˜655 nm using a spectrophotometer. The signalling pathway that TLR8 activation leads to downstream NF-κB activation has been widely accepted, and therefore similar reporter assay was modified for evaluating TLR8 antagonist.

| Structure (SMILES) | IC50 [nM] |
| --- | --- |
| C[C@@H]1CN(c2ccc(C#N)n3nccc23)C[C@H](CN2CCC3(CCNC3)C2)O1 (stereo partly drawn) [Example 6, 4-[(2S,6R)-2-(2,7-diazaspiro[4.4]nonan-2-ylmethyl)-6-methyl-morpholin-4-yl]pyrazolo[1,5-a]pyridine-7-carbonitrile] | 140 |
| C[C@@H]1CN(c2ccc(C#N)n3nccc23)C[C@H](CN2CC3CCC2CN3)O1 (stereo partly drawn) [Example 30, 4-[(2S,6R)-2-(2,5-diazabicyclo[2.2.2]octan-2-ylmethyl)-6-methyl-morpholin-4-yl]pyrazolo[1,5-a]pyridine-7-carbonitrile] | 100 |
| C[C@@H]1CN(c2ccc(C#N)n3nccc23)C[C@H](CN2CCNC3(CC3)C2)O1 [Example 40, 4-[(2S,6R)-2-(4,7-diazaspiro[2.5]octan-7-ylmethyl)-6-methyl-morpholin-4-yl]pyrazolo[1,5-a]pyridine-7-carbonitrile] | 140 |
| C[C@@H]1CN(c2ccc(C#N)n3nccc23)C[C@H](CN2CC3(CC(N)C3)C2)O1 [Example 11, 4-[(2S,6R)-2-[(6-amino-2-azaspiro[3.3]heptan-2-yl)methyl]-6-methyl-morpholin-4-yl]pyrazolo[1,5-a]pyridine-7-carbonitrile] | 930 |
| C[C@@H]1CN(c2ccc(C#N)n3nccc23)C[C@H](CN2CCC3(CCNCC3)C2)O1 [Example 18, 4-[(2S,6R)-2-(2,8-diazaspiro[4.5]decan-2-ylmethyl)-6-methyl-morpholin-4-yl]pyrazolo[1,5-a]pyridine-7-carbonitrile] | 350 |
| C[C@@H]1CN(c2ccc(C#N)n3nccc23)C[C@H](CN2CC3(CCNCC3)C2)O1 [Example 24, 4-[(2S,6R)-2-(2,7-diazaspiro[3.5]nonan-2-ylmethyl)-6-methyl-morpholin-4-yl]pyrazolo[1,5-a]pyridine-7-carbonitrile] | 610 |
| C[C@@H]1CN(c2ccc(C#N)n3nccc23)C[C@H](CN2CCCC3(CCNCC3)C2)O1 [Example 32, 4-[(2S,6R)-2-(2,9-diazaspiro[5.5]undecan-2-ylmethyl)-6-methyl-morpholin-4-yl]pyrazolo[1,5-a]pyridine-7-carbonitrile] | 91 |
| C[C@@H]1CN(c2ccc(C#N)n3nccc23)C[C@H](CN2CCC(N)C(F)(F)C2)O1 (stereo partly drawn) [Example 34, 4-[(2S,6R)-2-[(4-amino-3,3-difluoro-1-piperidyl)methyl]-6-methyl-morpholin-4-yl]pyrazolo[1,5-a]pyridine-7-carbonitrile] | 65 |
| C[C@@H]1CN(c2ccc(C#N)n3nccc23)C[C@H](CN2CCCC3(CCNC3)C2)O1 (stereo partly drawn) [Example 44, 4-[(2S,6R)-2-(2,7-diazaspiro[4.5]decan-7-ylmethyl)-6-methyl-morpholin-4-yl]pyrazolo[1,5-a]pyridine-7-carbonitrile] | 25 |
| C[C@@H]1CN(c2ccc(C#N)n3nccc23)C[C@H](CN2CCC(N3CCNCC3)CC2)O1 [Example 39, 4-[(2R,6S)-2-methyl-6-[(4-piperazin-1-yl-1-piperidyl)methyl]morpholin-4-yl]pyrazolo[1,5-a]pyridine-7-carbonitrile] | 180 |
| C[C@@H]1CN(c2ccc(C#N)n3nccc23)C[C@H](CN2C3CNCC2COC3)O1 [Example 57, 4-[(2R,6S)-2-methyl-6-(3-oxa-7,9-diazabicyclo[3.3.1]nonan-9-ylmethyl)morpholin-4-yl]pyrazolo[1,5-a]pyridine-7-carbonitrile] | 62 |
| C[C@@H]1CN(c2ccc(C#N)n3nccc23)C[C@H](CN2C3COCC2CC(N)C3)O1 (stereo partly drawn) [Example 58, 4-[(2S,6R)-2-[(7-amino-3-oxa-9-azabicyclo[3.3.1]nonan-9-yl)methyl]-6-methyl-morpholin-4-yl]pyrazolo[1,5-a]pyridine-7-carbonitrile] | 58 |
| C[C@@H]1CN(c2ccc(C#N)n3nccc23)C[C@H](CN2CCC(N3CCCCCC3)CC2)O1 [Example 4, 4-[(2S,6R)-2-[[4-(azepan-1-yl)-1-piperidyl]methyl]-6-methyl-morpholin-4-yl]pyrazolo[1,5-a]pyridine-7-carbonitrile] | 26 |
| C[C@@H]1CN(c2ccc(C#N)n3nccc23)C[C@H](CN2CCC(CN)CC2)O1 [Example 12, 4-[(2S,6R)-2-[[4-(aminomethyl)-1-piperidyl]methyl]-6-methyl-morpholin-4-yl]pyrazolo[1,5-a]pyridine-7-carbonitrile] | 280 |
| C[C@@H]1CN(c2ccc(C#N)n3nccc23)C[C@H](CN2CCC3(CCCCN3)C2)O1 (stereo partly drawn) [Example 42, 4-[(2S,6R)-2-(2,6-diazaspiro[4.5]decan-2-ylmethyl)-6-methyl-morpholin-4-yl]pyrazolo[1,5-a]pyridine-7-carbonitrile] | 65 |

Continued, values first:

| IC50 [nM] | Structure (SMILES) |
| --- | --- |
| 260 | C[C@@H]1CN(c2ccc(C#N)n3nccc23)C[C@H](CN2CC[C@@H]3CNCC32)O1 (stereo partly drawn) [Example 62, 4-[(2R,6S)-2-methyl-6-[[cis-(3aR,6aR)-3,3a,4,5,6,6a-hexahydro-2H-pyrrolo[3,4-b]pyrrol-1-yl]methyl]morpholin-4-yl]pyrazolo[1,5-a]pyridine-7-carbonitrile] |
| 130 | C[C@@H]1CN(c2ccc(C#N)n3nccc23)C[C@H](CN2CCN(C3CCNCC3)CC2Cc2ccccc2)O1 (stereo partly drawn) [Example 77, 4-[(2S,6R)-2-[[2-benzyl-4-(4-piperidyl)piperazin-1-yl]methyl]-6-methyl-morpholin-4-yl]pyrazolo[1,5-a]pyridine-7-carbonitrile] |
| 6 | C[C@@H]1CN(c2ccc(C#N)n3nccc23)C[C@H](CN2CCNCC2Cc2ccccc2)O1 (stereo partly drawn) [Example 59, 4-[(2S,6R)-2-[(2-benzylpiperazin-1-yl)methyl]-6-methyl-morpholin-4-yl]pyrazolo[1,5-a]pyridine-7-carbonitrile] |
| 47 | C[C@@H]1CN(c2ccc(C#N)n3nccc23)C[C@H](CN2CCC(N)(c3ccccc3)CC2)O1 [Example 73, 4-[(2S,6R)-2-[(4-amino-4-phenyl-1-piperidyl)methyl]-6-methyl-morpholin-4-yl]pyrazolo[1,5-a]pyridine-7-carbonitrile] |
| 480 | C[C@@H]1CN(c2ccc(C#N)n3nccc23)C[C@H](CN2CC3CCNCC32)O1 (stereo partly drawn) [Example 56, 4-[(2S,6R)-2-(3,8-diazabicyclo[4.2.0]octan-8-ylmethyl)-6-methyl-morpholin-4-yl]pyrazolo[1,5-a]pyridine-7-carbonitrile] |
| 55 | C[C@@H]1CN(c2ccc(C#N)n3nccc23)C[C@H](CN2CCOC3(CCNCC3)C2)O1 [Example 71, 4-[(2R,6S)-2-methyl-6-(1-oxa-4,9-diazaspiro[5.5]undecan-4-ylmethyl)morpholin-4-yl]pyrazolo[1,5-a]pyridine-7-carbonitrile] |
| 52 | CC1CNCCN1C[C@H]1CN(c2ccc(C#N)n3nccc23)C[C@@H](C)O1 (single isomer, unassigned) [Example 50B] |
| 40 | CC1CC(N)CCN1C[C@H]1CN(c2ccc(C#N)n3nccc23)C[C@@H](C)O1 (stereo partly drawn) [Example 51, 4-[(2S,6R)-2-[(4-amino-2-methyl-1-piperidyl)methyl]-6-methyl-morpholin-4-yl]pyrazolo[1,5-a]pyridine-7-carbonitrile] |
| 31 | C[C@@H]1CN(c2ccc(C#N)n3nccc23)C[C@H](CN2CCC3(CCCCN3)CC2)O1 [Example 47, 4-[(2S,6R)-2-(1,9-diazaspiro[5.5]undecan-9-ylmethyl)-6-methyl-morpholin-4-yl]pyrazolo[1,5-a]pyridine-7-carbonitrile] |
